The values that follow come from patent US20080071089A1, “Process for the Manufacture of Rabeprazole Sodium” (Lupin Limited, priority 2005, published 2008).

For series [1] the following is noted: for Particle size: MALVERN mastersizer 2000, dispersant: light liquid paraffin; for mean particle diameter: amorphous solid as isolated and dried.
For series [2] the following is noted: versus product with particle size of above 100 μm.
For series [3] the following is noted: 75% relative humidity, 40° C.

`COCCCOc1ccnc(C[S+]([O-])c2nc3ccccc3[nH]2)c1C.[Na]` (racemic) [Example 1, (±)sodium-2-[[[4-(3-methoxypropoxy)-3-methyl-pyridinyl]methyl]sulfinyl]1H-benzimidazole]: in series [1], the Particle size lay within 10 to 50 μm and the mean particle diameter lay in the range of 10 to 50 μm.

For the molecule `COCCCOc1ccnc(C[S+]([O-])c2nc3ccccc3[nH]2)c1C.[Na]` (racemic) [Example 6 of U.S. Pat. No. 5045552, (±)sodium-2-[[[4-(3-methoxypropoxy)-3-methyl-pyridinyl]methyl]sulfinyl]1H-benzimidazole, reference compound], the Particle size in series [1] fell in the range of 80 to 150 μm.

Consider `COCCCOc1ccnc(C[S+]([O-])c2nc3ccccc3[nH]2)c1C.[Na]` (racemic) [Example 2, (±)sodium-2-[[[4-(3-methoxypropoxy)-3-methyl-pyridinyl]methyl]sulfinyl]1H-benzimidazole], for which, in series [1], the Particle size fell in the range of 15 to 55 μm and the mean particle diameter was in the range of 15 to 55 μm.

Take “(±)sodium-2-[[[4-(3-methoxypropoxy)-3-methyl-pyridinyl]methyl]sulfinyl]1H-benzimidazole [amorphous rabeprazole sodium]”: the bioavailability result in series [2] is recorded as “better bioavailability”. Further, the stability entry in series [3] is listed as “stable”. In series [1], this molecule displayed a mean particle diameter of 10 to 55 μm.
